Values quoted from earlier work in patent publication US20250215497A1, “IL-8, IL-6, IL-1 Beta and TET2 and DNMT3A in Atherosclerosis” (The Brigham and Women’s Hospital, Inc., priority 2017, published 2025).

What was measured:
[1] = test system: IL-6; details: patients with rheumatoid arthritis, low-dose methotrexate
[2] = test system: IL-1β; details: patients with rheumatoid arthritis, low-dose methotrexate (for example from 15 to 20 mg/week)

In the case of `CN(Cc1cnc2nc(N)nc(N)c2n1)c1ccc(C(=O)N[C@@H](CCC(=O)O)C(=O)O)cc1` [methotrexate], the “effect on IL-6 levels” value [1] is listed as “improve IL-6 levels” and the “effect on IL-1β levels” value [2] is listed as “improve IL-1β levels”.
